Patent US20130174289A1, “Na+/Mg2+ Exchanger” (FBN - Leibnitz-Institut fur Nutztierbiologie, priority 2010, published 2013)

What was measured:
[1] = target: SLC41A1-related Na+/Mg2+ exchanger (Homo sapiens, UniProt Q8IVJ1); experiment: Modulators of SLC41A1-related Na+/Mg2+ exchanger activity (Table 3); assay type: cell-based; conditions: at the dosage given, where given;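 note: listed substances are classed by whether they raise or lower SLC41A1-related Na+/Mg2+ exchanger activity, acting directly on the protein or through cellular signalling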
HEK293-(SLC41A1) cells = experiment: Proliferation (cell index) of HEK293-(SLC41A1) cells; conditions: imipramine 250 μM, dB-cAMP 100 μM, added 24 hours after seeding; compared to controls
hSLC41A1 = hSLC41A1 (Homo sapiens, UniProt Q8IVJ1); experiment: Mg2+ efflux ([Mg2+]i decrease over 20 min) by mag-fura 2 FF-spectrofluorometry in +tet HEK293-(SLC41A1) cells; conditions: for Mg2+ efflux: Mg2+-free medium, [Na+]e 145 mM; for Effect on SLC41A1-mediated Mg2+ efflux (in words): summary statement
hSLC41A1, sequence (Q8IVJ1 whole entry): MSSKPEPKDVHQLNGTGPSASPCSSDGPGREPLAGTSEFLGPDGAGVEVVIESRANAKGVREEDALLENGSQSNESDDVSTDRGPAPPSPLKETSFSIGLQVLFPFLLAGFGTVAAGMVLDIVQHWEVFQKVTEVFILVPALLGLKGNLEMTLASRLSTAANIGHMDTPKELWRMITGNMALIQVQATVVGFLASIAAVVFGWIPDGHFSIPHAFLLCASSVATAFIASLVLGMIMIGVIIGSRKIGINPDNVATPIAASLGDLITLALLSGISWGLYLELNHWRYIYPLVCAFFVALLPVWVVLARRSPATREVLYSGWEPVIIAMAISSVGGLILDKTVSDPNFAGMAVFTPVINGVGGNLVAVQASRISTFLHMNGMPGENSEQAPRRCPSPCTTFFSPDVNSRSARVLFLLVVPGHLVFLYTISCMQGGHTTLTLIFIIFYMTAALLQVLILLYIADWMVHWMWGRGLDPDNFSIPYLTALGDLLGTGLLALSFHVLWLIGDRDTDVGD
Description: Loading of cells with 7.5 μmol.l^−1 mag-fura 2 AM (Molecular Probes, Eugene, Oreg. USA) was performed for 30 minutes at 37° C. in the presence of loading facilitator Pluronic F-127 (Molecular probes). After being washed in CMF-HBS+, cells were incubated for a further 30 minutes at 37° C. to allow for complete de-esterification of the fluorescence probe, washed twice in CMF-HBS+ to remove extracellular mag-fura 2 and stored in CMF-HBS supplemented with 10 mmol.l^−1 HEPES, 5 mmol.l^−1 glucose and 0.4 mmol.l^−1 Mg^2+ until being Mg^2+-loaded before measurements of the Mg^2+ efflux capacity. The latter was determined as the intracellular Mg^2+ concentration ([Mg^2+]i) decrease over a 20-min period. Directly before the efflux experiments, −tet and +tet HEK293-(SLC41A1) were Mg-loaded by a 20-min incubation in CMF-HBS+ containing 0, 2, 5 or 10 mmol.l^−1 Mg. […] After loading, the remaining extracellular Mg^2+ was removed by washing the cells twice in CMF-HBS+ and, after re-suspending the cells in CMF-HBS+, measurements were started. To determine the influence of varying extracellular [Na^+], measuring solutions were prepared by diluting the CMF-HBS+ containing 145 mM Na^+ with appropriate volumes of a completely Na^+- and Mg^2+-free PBS. To investigate the effect of HCO3^− on Mg^2+ efflux, completely Ca^2+- and Mg^2+-free medium 199 completed with 10 mmol.l^−1 HEPES and 1.36 mmol.l^−1 L-glutamine (CMF-M199+) with Hank's (0.35 g/l NaHCO3) or Earl's (2.2 g/l NaHCO3) salts were used during Mg-loading and measurements. To ensure a stable pH value, the high-HCO3^− media were pre-equilibrated with 95% air-5% CO2.
Measurements were made at 37° C. in 3 ml cuvettes containing 2 ml cell suspension (CMF-HBS+ or CMF-M199+ with a cytocrit of 10%) under stirring. [Mg^2+]i was determined by measuring the fluorescence of the probe-loaded cells in a spectrofluorometer (LS50-B, PerkinElmer Life Science, Wellesley, Mass. USA) by using the fast filter accessory, which allowed fluorescence to be measured at 20-ms intervals with excitation at 340 and 380 nm, and emission at 515 nm. [Mg^2+]i values were calculated from the 340/380-nm ratio according to the formula of Grynkiewicz et al. (1981) by using the software FL WinLab version 4.0 (PerkinElmer Life Science). A dissociation constant of 1.5 mmol.l^−1 for the mag-fura 2/Mg^2+ complex was used for calculations; minimum (Rmin) and maximum (Rmax) ratios were determined at the end of each experiment by using digitonin. Rmax was found by the addition of 25 mmol.l^−1 MgCl2 in the absence of Ca^2+, whereas Rmin was obtained by addition of 50 mmol.l^−1 EDTA, pH 7.2, to remove all Mg^2+ from the solution. For data evaluation, 10-second data sets each were averaged at the beginning of the measurement and then always after 50 seconds. The final [Mg^2+]i was determined as the mean [Mg^2+]i of the last 10 seconds of the measurement. Thus, for the calculation of any given [Mg^2+]i, 500 data points were used. If not otherwise stated, data are presented as means±standard error (SE).

SLC41A1-related Na+/Mg2+ exchanger, sequence (Q8IVJ1 whole entry): as above

Molecule | Effect on Na+/Mg2+ exchanger [1] | other results
Nc1ncnc2c1nc(Cl)n2[C@@H]1O[C@@H]2COP(=O)(O)O[C@H]2[C@H]1O [8-Cl-cAMP] | activation | –
Nc1nc2c(nc(Br)n2[C@@H]2O[C@@H]3COP(=O)(O)O[C@H]3[C@H]2O)c(=O)[nH]1 [8-bromo-cyclic GMP] | activation | –
C[C@]12CCC(=O)C=C1CC[C@@H]1[C@@H]2[C@@H](O)C[C@]2(C=O)[C@@H](C(=O)CO)CC[C@@H]12 [Aldosterone] | activation | –
N=C(N)NC(=O)c1nc(Cl)c(N)nc1N [Amiloride, 3,5-diamino-6-chloro-N-(diaminomethylidene)pyrazine-2-carbox-amide] | Inhibition | –
CCCCC/C=C\C/C=C\C/C=C\C/C=C\CCCC(=O)O [Arachidonic acid, (5Z,8Z,11Z,14Z)-icosa-5,8,11,14-tetraenoic acid] | activation | –
N/C(=N\C(=O)c1nc(Cl)c(N)nc1N)NCc1ccccc1 [Benzamil, 3,5-diamino-N-[(1E)-amino(benzylamino)methylidene]-6-chloropyrazine-2-carboxamide] | Inhibition | –
COc1c(O)c2c(=O)cc(OC)c3c4c(OC)cc(=O)c5c(O)c(OC)c(CC(C)OC(=O)c6ccccc6)c(c(c1CC(C)OC(=O)Oc1ccc(O)cc1)c23)c54 (stereo not shown) [Calphostin C, 1-[3,10-dihydroxy-12-[2-(4-hydroxyphenoxy)-carbonyloxypropyl]-2,6,7,11-tetramethoxy-4,9-dioxoperylen-1-yl]propan-2-yl benzoate] | inhibition | –
O=S(=O)([O-])c1cc(N=C=S)ccc1CCc1ccc(N=C=S)cc1S(=O)(=O)[O-].[Na+].[Na+] [DIDS, 4′,4′-diisothiocyanatodihydrostilbene-′,2′-disulfonic acid, disodium salt] | Inhibition | –
C=C[C@@]1(C)CC(=O)[C@]2(O)[C@@]3(C)[C@@H](O)CCC(C)(C)[C@@H]3[C@H](O)[C@H](OC(C)=O)[C@@]2(C)O1 [Forskolin, [(3R,4aR,5S,6S,6aS,10S,10aR,10bS)-3-ethenyl-6,10,10b-trihydroxy-3,4a,7,7,10a-pentamethyl-1-oxo-5,6,6a,8,9,10-hexahydro-2H-benzo[f]chromen-5-yl] acetate] | activation | –
O=c1c(-c2ccc(O)cc2)coc2cc(O)cc(O)c12 [Genistein, 5,7-dihydroxy-3-(4-hydroxyphenyl)chromen-4-one] | inhibition | –
CN(C)CCCN1c2ccccc2CCc2ccccc21 [Imipramine, 10,11-Dihydro-N,N-dimethyl-5H-dibenz-[b,f]azepin-5-propanamin] | Inhibition | Effect on proliferation of SLC41A1-overexpressing cells (in words) (HEK293-(SLC41A1) cells): reduced the proliferation; Mg2+ efflux (hSLC41A1; 250 μM, Mg2+-loaded (20 min, 10 mM) +tet HEK293-(SLC41A1) cells, without inhibitor 341±35): 129±32 μM/20 min; Effect on SLC41A1-mediated Mg2+ efflux (in words) (hSLC41A1): strongly decrease
COc1ccc2c(c1)c(CC(=O)O)c(C)n2C(=O)c1ccc(Cl)cc1 [Indomethacin, 2-[1-(4-chlorobenzoyl)-5-methoxy-2-methylindol-3-yl]acetic acid] | activation | –
CS(=O)(=O)O.N=C(N)SCCc1ccc(OCc2ccc([N+](=O)[O-])cc2)cc1 [KB-R7943, 2-(2-(4-(4-nitrobenzyloxy)-phenyl)ethyl)isothiourea methanesulfonate] | Inhibition | –
CNC(=N)NCCC[C@H](N)C(=O)O [L-NMMA, NG-monomethyl-L-arginine] | inhibition | –
CCN(CC)CC(=O)Nc1c(C)cccc1C [Lidocaine, 2-(diethylamino)-N-(2,6-dimethylphenyl)-acetamide] | Inhibition | –
COCC(/C(C)=C/C(=N\O)C(N)=O)[N+](=O)[O-] (stereo not shown) [NOR1, (E)-4-methyl-2-[(E)-hydoxyimino]-5-nitro-6-methoxy-3-hexenamide] | activation | –
COC(=O)C1=C(C)NC(C)=C(C(=O)OC)C1c1ccccc1[N+](=O)[O-] [Nifedipine, 3,5-dimethyl 2,6-dimethyl-4-(2-nitrophenyl)-1,4-di-hydropyridine-3,5-di-carboxylate] | Inhibition | –
NC[C@H](O)c1ccc(O)c(O)c1 [Norepinephrine] | activation | –

Molecule | Effect on Na+/Mg2+ exchanger [1] | other results
O=c1onc2cnc3ccccc3n12 [ODQ, 1H-[1,2,4]oxadiazolo[4,3-α]quinoxaline-1] | inhibition | –
C[C@@H]1O[C@@H](O[C@H]2C[C@@H](O)[C@]3(CO)[C@H]4[C@H](O)C[C@]5(C)[C@@H](C6=CC(=O)OC6)CC[C@]5(O)[C@@H]4CC[C@]3(O)C2)[C@H](O)[C@H](O)[C@H]1O [Ouabain] | inhibition | –
CCCCC[C@H](O)/C=C/[C@H]1[C@H](O)CC(=O)[C@@H]1C/C=C\CCCC(=O)O [PGE2, (Z)-7-[(1R,2R,3R)-3-hydroxy-2-[(E,3S)-3-hydroxyoct-1-enyl]-5-oxocyclopentyl]hept-5-enoic acid] | activation | –
CCCC(=O)O[C@@H]1[C@@H](C)[C@@]2(O)[C@@H](C=C(CO)C[C@]3(O)C(=O)C(C)=C[C@@H]23)[C@@H]2C(C)(C)[C@]12OC(=O)CCC [Phorbol 12,13-dibutyrate] | activation | –
C=CC1CN2CCC1CC2C(O)c1ccnc2ccc(OC)cc12 (stereo not shown) [Quinidin, (2-ethenyl-4-azabicyclo [2.2.2]oct-5-yl)-(6-methoxyquinolin-4-yl)-methanol] | Inhibition | Mg2+ efflux (hSLC41A1; 100 μM quinidin, Mg2+-loaded (10 mM) +tet HEK293-(SLC41A1) cells, without inhibitor 327±71): 176±0.5 μM/20 min; Effect on SLC41A1-mediated Mg2+ efflux (in words) (hSLC41A1): strongly decrease
Nc1ncnc2c1ncn2[C@@H]1O[C@@H]2COP(O)(=S)O[C@H]2[C@H]1O (stereo partly shown) [Rp-cAMP] | inhibition | –
CCOc1ccc(Oc2ccc(OCc3cc(F)ccc3F)cc2)c(N)c1 [SEA0400, 2-[4-[(2,5-difluoro-phenyl)methoxy]phenoxy]-5-ethoxyaniline] | Inhibition | –
NCCS(=O)(=O)O [Taurine, 2-aminoethanesulfonic acid] | inhibition | –
C[C@@H]1C[C@@]2(NC(=O)CS2)[C@]2(O)O[C@@H]3C[C@@]4(CO)[C@@H](CC[C@@H]5[C@@H]4CC[C@]4(C)[C@@H](C6=CC(=O)OC6)CC[C@]54O)C[C@H]3O[C@@H]2O1 [UNBS-1450] | inhibition | –
CCCC(=O)Nc1ncnc2c1ncn2[C@@H]1O[C@@H]2COP(=O)(O)O[C@H]2[C@H]1OC(=O)CCC [dibutyryl-cAMP] | activation | Effect on proliferation of SLC41A1-overexpressing cells (in words) (HEK293-(SLC41A1) cells): stimulation of their proliferation; increase of SLC41A1-related Mg2+ efflux (hSLC41A1; dB-cAMP 100 μM, loading in 0 mM-Mg2+ solution, +tet cells): 36%; increase of SLC41A1-related Mg2+ efflux (hSLC41A1; dB-cAMP 100 μM, loading in 2 mM-Mg2+ solution, +tet cells): 13%; decrease of SLC41A1-related Mg2+ efflux (hSLC41A1; dB-cAMP 100 μM, loading in 10 mM-Mg2+ solution, +tet cells): 17%; Effect on SLC41A1-mediated Mg2+ efflux (in words) (hSLC41A1): stimulated
CC(C)NCC(O)c1ccc(O)c(O)c1 (stereo not shown) [isoproterenol] | activation | –
C[C@]12CC[C@H](O)C[C@@]1(O)CC[C@@H]1[C@@H]2CC[C@]2(C)[C@@H](c3ccc(=O)oc3)C[C@H]3O[C@]132 [marinobufagenin] | inhibition | –
CO[C@H]1C[C@H](O[C@H]2CC[C@@]3(C)[C@H](CC[C@@H]4[C@@H]3CC[C@]3(C)[C@@H](C5=CC(=O)OC5)[C@@H](OC(C)=O)C[C@]43O)C2)O[C@@H](C)[C@@H]1O [oleandrin] | inhibition | –
C[C@]12CC[C@H](O)C[C@H]1CC[C@@H]1[C@@H]2CC[C@]2(C)[C@@](O)(c3ccoc3)CC[C@]12O [rostafuroxin] | inhibition | –
Angiotensin II: hormone; vasoactive agent, vasoconstriction (via AT 1 receptor) (DRVYIHPF; Angiotensin-2; UniProt P01019 25-32, looked up) | activation | stimulation of SLC41A1-related Mg2+ efflux (hSLC41A1): 19.5%; Effect on SLC41A1-mediated Mg2+ efflux (in words) (hSLC41A1): stimulated
Glucagon: hormone; modulator listed in Table 3 | activation | –
Insulin: hormone (via insulin receptor) | inhibition | Effect on SLC41A1-mediated Mg2+ efflux (in words) (hSLC41A1): inhibitory effect
epidermal growth factor (EGF): mitogen | inhibition | –
